Usually EC50 stands for the concentration needed to bring the measured effect to its halfway point.

Here are results for nine molecules from patent US8299023B2, “Neuropeptide-2 receptor (Y-2R) agonists” (Hoffmann-La Roche Inc., priority 2008, dated 2012).

One assay has as its system hypothalamic slices. The settings on record: hypothalamic slices in vitro; cited from earlier work.
A further assay addresses Y4R (Homo sapiens, UniProt P50391). The assay can be described thus: Ca flux assay (FLIPR), Y4R. Format: cell-based.
The next assay deals with T1, Y5R (Homo sapiens, UniProt Q15761).
T1 sequence (Q15761 1-445): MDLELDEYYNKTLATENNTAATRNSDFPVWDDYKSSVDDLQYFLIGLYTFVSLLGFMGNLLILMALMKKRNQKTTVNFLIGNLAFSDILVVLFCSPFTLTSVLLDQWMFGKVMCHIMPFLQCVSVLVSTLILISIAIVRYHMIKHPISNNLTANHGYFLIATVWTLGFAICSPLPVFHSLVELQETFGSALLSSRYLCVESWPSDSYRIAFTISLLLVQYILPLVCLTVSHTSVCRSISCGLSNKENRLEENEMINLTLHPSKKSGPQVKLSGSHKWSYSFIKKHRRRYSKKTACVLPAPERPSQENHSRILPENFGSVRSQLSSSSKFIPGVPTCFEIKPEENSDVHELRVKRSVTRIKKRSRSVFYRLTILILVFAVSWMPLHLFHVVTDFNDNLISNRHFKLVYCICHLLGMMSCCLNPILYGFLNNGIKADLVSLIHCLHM
The assay can be described thus: Ca flux assay (FLIPR), Y5R. Format: cell-based. The settings on record: for Emax: read-out: Y5R FLIPR, percentage in brackets beside the EC50.

A further assay addresses T2, Y1R (Homo sapiens, UniProt P25929).
T2 sequence (P25929 1-384): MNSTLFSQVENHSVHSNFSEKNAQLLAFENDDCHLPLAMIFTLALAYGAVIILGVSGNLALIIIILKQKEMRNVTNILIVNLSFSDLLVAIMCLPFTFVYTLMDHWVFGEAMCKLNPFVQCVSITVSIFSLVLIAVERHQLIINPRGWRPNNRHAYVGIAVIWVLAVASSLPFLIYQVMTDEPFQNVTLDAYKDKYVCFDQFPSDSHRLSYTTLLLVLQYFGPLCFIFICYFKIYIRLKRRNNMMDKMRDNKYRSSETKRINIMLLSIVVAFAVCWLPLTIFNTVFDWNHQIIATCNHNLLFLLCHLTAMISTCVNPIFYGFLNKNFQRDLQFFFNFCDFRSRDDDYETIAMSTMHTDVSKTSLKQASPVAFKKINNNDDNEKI
The assay can be described thus: Ca flux assay (FLIPR), Y1R. The format is cell-based.

A further assay concerns the target T3, human NPY2-receptors (Homo sapiens, UniProt P49146).
T3 construct: expressed in transfected cells; host or cells: HEK293 (G418 selection in the medium)
T3 sequence (P49146 1-381): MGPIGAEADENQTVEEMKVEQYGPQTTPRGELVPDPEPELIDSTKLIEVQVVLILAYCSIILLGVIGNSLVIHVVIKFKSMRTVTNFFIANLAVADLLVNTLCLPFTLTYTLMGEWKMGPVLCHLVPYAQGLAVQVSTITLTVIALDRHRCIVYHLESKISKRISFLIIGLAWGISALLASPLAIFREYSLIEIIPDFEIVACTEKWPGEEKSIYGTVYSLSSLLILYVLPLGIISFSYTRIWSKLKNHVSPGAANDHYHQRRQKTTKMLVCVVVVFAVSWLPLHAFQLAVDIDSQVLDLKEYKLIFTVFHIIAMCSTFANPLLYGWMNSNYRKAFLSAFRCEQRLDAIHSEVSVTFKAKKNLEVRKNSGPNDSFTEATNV
The assay can be described thus: cAMP agonist assay, Y2R. Format: cell-based.

Sequence of Y4R (P50391 whole entry): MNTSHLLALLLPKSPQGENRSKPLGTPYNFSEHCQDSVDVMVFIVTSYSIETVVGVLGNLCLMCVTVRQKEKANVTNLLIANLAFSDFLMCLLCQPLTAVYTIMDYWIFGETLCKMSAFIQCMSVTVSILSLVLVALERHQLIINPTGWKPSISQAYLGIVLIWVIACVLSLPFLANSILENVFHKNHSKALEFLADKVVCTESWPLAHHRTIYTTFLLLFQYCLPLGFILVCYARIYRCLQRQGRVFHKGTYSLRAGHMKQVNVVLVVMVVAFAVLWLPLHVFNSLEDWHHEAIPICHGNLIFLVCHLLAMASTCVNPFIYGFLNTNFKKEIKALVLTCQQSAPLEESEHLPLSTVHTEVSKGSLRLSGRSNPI
Experimental for human NPY2-receptors: HEK293 cells expressing human NPY2-receptors were plated in a 384-well plate at a density of 9000 cells/well using a Multi-drop dispenser and the plates were grown overnight at 37° C.
The media and reagents were warmed to room temperature. Before the dilutions were prepared, the stock solution of NPY2-receptor ligands and controls in dimethyl sulphoxide (DMSO, Sigma Cat. #D2650) was allowed to warm up to 32° C. for 5-10 min.
The plating media was removed by gentle inversion of the 384-well plate on a paper towel and was replaced with incubation medium (50 μ/L well) containing various concentrations of NPY2-receptor ligands (four replicates/concentration). The plates were incubated at room temperature for 30 min. Following the 30 min treatment period, the incubation media was discarded and replaced with 50 μL/well of Assay Lysis Buffer (provided in the Tropix kit). The cells were lysed by incubating plates for 45 min @ 37° C. The lysate (20 μl) was transferred into the pre-coated antibody plates (384-well) supplied in the Tropix kit. AP conjugate (10 μL) and of anti-cAMP antibody (20 μL) was added to each well and the plates incubated on a shaker at room temperature for 1 h. The plates were washed 5 times with Wash Buffer (70 μL/well/wash) and the plates tapped dry. […] The signal in each well was measured (1 sec/well) using a Luminometer (VICTOR-V).

Take `N=C(N)NCCC[C@H](NC(=O)CC1(CC(=O)N2CCN(C3c4ccccc4NC(=O)c4ccccc43)CC2)CCCC1)C(=O)NCCn1c(=O)n(-c2ccccc2)n(-c2ccccc2)c1=O` (stereo partly shown) [BIIE0246]: the NPY release entry in the assay with hypothalamic slices was “increases NPY release”.
`CC[C@H](C)[C@H](NC(C)=O)C(=O)N[C@@H](CCCCN)C(=O)NCc1ccc(-c2cccc(CC(=O)N[C@@H](CCCNC(=N)N)C(=O)N[C@@H](Cc3c[nH]cn3)C(=O)N[C@@H](Cc3ccc(O)cc3)C(=O)N[C@@H](CC(C)C)C(=O)N[C@@H](CC(N)=O)C(=O)N[C@@H](Cc3c[nH]c4ccccc34)C(=O)N[C@H](C(=O)N[C@H](C(=O)N[C@@H](CCCNC(=N)N)C(=O)N[C@@H](CCC(N)=O)C(=O)N(C)[C@@H](CCCNC(=N)N)C(=O)N[C@@H](Cc3ccc(O)cc3)C(N)=O)[C@@H](C)O)C(C)C)c2)cc1` [Example 5]: the concentration for a half-maximal effect (EC50) on Y4R, on Y5R and on Y1R was > 30 µM in each case.
With `CC[C@H](C)[C@H](NC(C)=O)C(=O)N[C@@H](CCCCN)C(=O)N1CCN(c2ccc3c(ccn3CC(=O)N[C@@H](CCCNC(=N)N)C(=O)N[C@@H](Cc3c[nH]cn3)C(=O)N[C@@H](Cc3ccc(O)cc3)C(=O)N[C@@H](CC(C)C)C(=O)N[C@@H](CC(N)=O)C(=O)N[C@@H](Cc3c[nH]c4ccccc34)C(=O)N[C@H](C(=O)N[C@H](C(=O)N[C@@H](CCCNC(=N)N)C(=O)N[C@@H](CCC(N)=O)C(=O)N(C)[C@@H](CCCNC(=N)N)C(=O)N[C@@H](Cc3ccc(O)cc3)C(N)=O)[C@@H](C)O)C(C)C)c2)CC1` [Example 6], the concentration giving a half-maximal response (EC50) on Y4R was > 30 µM; on Y5R, 10.7 µM; at Y1R, > 30 µM.
`CC[C@H](C)[C@H](NC(C)=O)C(=O)N[C@@H](CCCCN)C(=O)N1CCCN(c2ccc3ncn(CC(=O)N[C@@H](CCCNC(=N)N)C(=O)N[C@@H](Cc4c[nH]cn4)C(=O)N[C@@H](Cc4ccc(O)cc4)C(=O)N[C@@H](CC(C)C)C(=O)N[C@@H](CC(N)=O)C(=O)N[C@@H](Cc4c[nH]c5ccccc45)C(=O)N[C@H](C(=O)N[C@H](C(=O)N[C@@H](CCCNC(=N)N)C(=O)N[C@@H](CCC(N)=O)C(=O)N(C)[C@@H](CCCNC(=N)N)C(=O)N[C@@H](Cc4ccc(O)cc4)C(N)=O)[C@@H](C)O)C(C)C)c(=O)c3c2)CC1` [Example 8]: the 50% effective concentration (EC50) on Y4R is > 9 µM; on Y5R, 6.03 µM; at Y1R it was > 9 µM.
On to `CC[C@H](C)[C@H](NC(C)=O)C(=O)N[C@@H](CCCCN)C(=O)N1CCN(c2nc3ncn(CC(=O)N[C@@H](CCCNC(=N)N)C(=O)N[C@@H](Cc4c[nH]cn4)C(=O)N[C@@H](Cc4ccc(O)cc4)C(=O)N[C@@H](CC(C)C)C(=O)N[C@@H](CC(N)=O)C(=O)N[C@@H](Cc4c[nH]c5ccccc45)C(=O)N[C@H](C(=O)N[C@H](C(=O)N[C@@H](CCCNC(=N)N)C(=O)N[C@@H](CCC(N)=O)C(=O)N(C)[C@@H](CCCNC(=N)N)C(=O)N[C@@H](Cc4ccc(O)cc4)C(N)=O)[C@@H](C)O)C(C)C)c3c(=O)[nH]2)CC1` [Example 9], for which the EC50 on Y4R, at Y5R and at Y1R was > 9 µM in each case.
Consider `CC[C@H](C)[C@H](NC(C)=O)C(=O)N[C@@H](CCCCN)C(=O)N1CCN(c2ncc3c(ncn3CC(=O)N[C@@H](CCCNC(=N)N)C(=O)N[C@@H](Cc3c[nH]cn3)C(=O)N[C@@H](Cc3ccc(O)cc3)C(=O)N[C@@H](CC(C)C)C(=O)N[C@@H](CC(N)=O)C(=O)N[C@@H](Cc3c[nH]c4ccccc34)C(=O)N[C@H](C(=O)N[C@H](C(=O)N[C@@H](CCCNC(=N)N)C(=O)N[C@@H](CCC(N)=O)C(=O)N(C)[C@@H](CCCNC(=N)N)C(=O)N[C@@H](Cc3ccc(O)cc3)C(N)=O)[C@@H](C)O)C(C)C)n2)CC1` [Example 10], for which the EC50 is > 5 µM on Y4R, 1.1 µM at Y5R and > 5 µM at Y1R. The Emax on Y5R was found to be 48%.
As for `CC[C@H](C)[C@H](NC(C)=O)C(=O)N[C@@H](CCCCN)C(=O)N1CCN(c2nc(N)c3c(ncn3CC(=O)N[C@@H](CCCNC(=N)N)C(=O)N[C@@H](Cc3c[nH]cn3)C(=O)N[C@@H](Cc3ccc(O)cc3)C(=O)N[C@@H](CC(C)C)C(=O)N[C@@H](CC(N)=O)C(=O)N[C@@H](Cc3c[nH]c4ccccc34)C(=O)N[C@H](C(=O)N[C@H](C(=O)N[C@@H](CCCNC(=N)N)C(=O)N[C@@H](CCC(N)=O)C(=O)N(C)[C@@H](CCCNC(=N)N)C(=O)N[C@@H](Cc3ccc(O)cc3)C(N)=O)[C@@H](C)O)C(C)C)n2)CC1` [Example 11], the EC50 at human NPY2-receptors is 0.00018 µM; on Y4R, > 5 µM; on Y5R it was 3.3 µM; on Y1R, > 5 µM. In addition, the Emax on Y5R is 39%.
As for `CC[C@H](C)[C@H](NC(C)=O)C(=O)N[C@@H](CCCCN)C(=O)N1CC2CC1CC2c1ccc2ncn(CC(=O)N[C@@H](CCCNC(=N)N)C(=O)N[C@@H](Cc3c[nH]cn3)C(=O)N[C@@H](Cc3ccc(O)cc3)C(=O)N[C@@H](CC(C)C)C(=O)N[C@@H](CC(N)=O)C(=O)N[C@@H](Cc3c[nH]c4ccccc34)C(=O)N[C@H](C(=O)N[C@H](C(=O)N[C@@H](CCCNC(=N)N)C(=O)N[C@@H](CCC(N)=O)C(=O)N(C)[C@@H](CCCNC(=N)N)C(=O)N[C@@H](Cc3ccc(O)cc3)C(N)=O)[C@@H](C)O)C(C)C)c(=O)c2c1` (stereo partly shown) [Example 12], the EC50 on Y4R was > 5 µM; at Y5R, 2.87 µM; at Y1R, > 5 µM. Moreover, at Y5R, the Emax stood at 43%.
For `CC[C@H](C)[C@H](NC(C)=O)C(=O)N[C@@H](CCCCN)C(=O)N1CCN(c2ccc3ccn(CC(=O)N[C@@H](CCCNC(=N)N)C(=O)N[C@@H](Cc4c[nH]cn4)C(=O)N[C@@H](Cc4ccc(O)cc4)C(=O)N[C@@H](CC(C)C)C(=O)N[C@@H](CC(N)=O)C(=O)N[C@@H](Cc4c[nH]c5ccccc45)C(=O)N[C@H](C(=O)N[C@H](C(=O)N[C@@H](CCCNC(=N)N)C(=O)N[C@@H](CCC(N)=O)C(=O)N(C)[C@@H](CCCNC(=N)N)C(=O)N[C@@H](Cc4ccc(O)cc4)C(N)=O)[C@@H](C)O)C(C)C)c(=O)c3c2)CC1` [Example 13], the EC50 on human NPY2-receptors was 0.00018 µM; on Y4R, > 5 µM; at Y5R it was 2.34 µM; at Y1R, > 5 µM. In addition, the Emax on Y5R came out at 49%.
